Publication PMC11157767 (Molecular Cancer, 2024)

Test system: TRIM24-MET-i cells
Procedure: The number of unique and shared differentially expressed genes between each comparison are shown in parentheses. A linear regression line is depicted along with Pearson’s correlation coefficient (r) and its associated p-value. […] Common negatively enriched genesets between all three comparisons are in bold. c, Heatmaps showing expression of Hallmark_Myc_Target_v1/2 genes for indicated cells and treatment comparisons (TRIM-MET cells were treated in vitro, TFG-MET cells in vivo). Select leading edge genes from GSEA are labeled.

CNC(=O)c1ccc(-c2cnc3ncc(Cc4ccc5ncccc5c4)n3n2)cc1F [Capmatinib]
NES HALLMARK_ADIPOGENESIS (GSEA v. DMSO): -0.9589
NES HALLMARK_ALLOGRAFT_REJECTION (GSEA v. DMSO): -1.401
NES HALLMARK_ANDROGEN_RESPONSE (GSEA v. DMSO): -1.889
NES HALLMARK_APICAL_JUNCTION (GSEA v. DMSO): -1.091
NES HALLMARK_APICAL_SURFACE (GSEA v. DMSO): 1.792
NES HALLMARK_APOPTOSIS (GSEA v. DMSO): -1.59
NES HALLMARK_BILE_ACID_METABOLISM (GSEA v. DMSO): 1.602
NES HALLMARK_CHOLESTEROL_HOMEOSTASIS (GSEA v. DMSO): -1.359
NES HALLMARK_COAGULATION (GSEA v. DMSO): -1.635
NES HALLMARK_COMPLEMENT (GSEA v. DMSO): -1.904
NES HALLMARK_DNA_REPAIR (GSEA v. DMSO): -0.965
NES HALLMARK_E2F_TARGETS (GSEA v. DMSO): -1.195
NES HALLMARK_EPITHELIAL_MESENCHYMAL_TRANSITION (GSEA v. DMSO): -1.076
NES HALLMARK_ESTROGEN_RESPONSE_EARLY (GSEA v. DMSO): -1.483
NES HALLMARK_ESTROGEN_RESPONSE_LATE (GSEA v. DMSO): -1.018
NES HALLMARK_FATTY_ACID_METABOLISM (GSEA v. DMSO): 0.99
NES HALLMARK_G2M_CHECKPOINT (GSEA v. DMSO): -1.318
NES HALLMARK_GLYCOLYSIS (GSEA v. DMSO): -1.3547
NES HALLMARK_HEDGEHOG_SIGNALING (GSEA v. DMSO): -1.3433
NES HALLMARK_HEME_METABOLISM (GSEA v. DMSO): 1.243
NES HALLMARK_HYPOXIA (GSEA v. DMSO): -1.387
NES HALLMARK_IL2_STAT5_SIGNALING (GSEA v. DMSO): -2.015
NES HALLMARK_IL6_JAK_STAT3_SIGNALING (GSEA v. DMSO): -0.9282
NES HALLMARK_INFLAMMATORY_RESPONSE (GSEA v. DMSO): -1.659
NES HALLMARK_INTERFERON_ALPHA_RESPONSE (GSEA v. DMSO): 1.273
NES HALLMARK_INTERFERON_GAMMA_RESPONSE (GSEA v. DMSO): -0.9862
NES HALLMARK_KRAS_SIGNALING_DN (GSEA v. DMSO): 1.126
NES HALLMARK_KRAS_SIGNALING_UP (GSEA v. DMSO): -1.881
NES HALLMARK_MITOTIC_SPINDLE (GSEA v. DMSO): -1.303
NES HALLMARK_MTORC1_SIGNALING (GSEA v. DMSO): -2.1602
NES HALLMARK_MYC_TARGETS_V1 (GSEA v. DMSO): -2.499
NES HALLMARK_MYC_TARGETS_V2 (GSEA v. DMSO): -2.697
NES HALLMARK_MYOGENESIS (GSEA v. DMSO): -0.8301
NES HALLMARK_NOTCH_SIGNALING (GSEA v. DMSO): -1.186
NES HALLMARK_OXIDATIVE_PHOSPHORYLATION (GSEA v. DMSO): -1.201
NES HALLMARK_P53_PATHWAY (GSEA v. DMSO): -0.9833
NES HALLMARK_PANCREAS_BETA_CELLS (GSEA v. DMSO): 1.071
NES HALLMARK_PEROXISOME (GSEA v. DMSO): 1.028
NES HALLMARK_PI3K_AKT_MTOR_SIGNALING (GSEA v. DMSO): -1.164
NES HALLMARK_PROTEIN_SECRETION (GSEA v. DMSO): -1.171
NES HALLMARK_REACTIVE_OXYGEN_SPECIES_PATHWAY (GSEA v. DMSO): -1.072
NES HALLMARK_SPERMATOGENESIS (GSEA v. DMSO): 0.7417
NES HALLMARK_TGF_BETA_SIGNALING (GSEA v. DMSO): -1.868
NES HALLMARK_TNFA_SIGNALING_VIA_NFKB (GSEA v. DMSO): -2.324
NES HALLMARK_UV_RESPONSE_DN (GSEA v. DMSO): -1.271
NES HALLMARK_UV_RESPONSE_UP (GSEA v. DMSO): -1.537
NES HALLMARK_WNT_BETA_CATENIN_SIGNALING (GSEA v. DMSO): -1.2104
NES HALLMARK_XENOBIOTIC_METABOLISM (GSEA v. DMSO): 0.8191
NES KRIGE_RESPONSE_TO_TOSEDOSTAT_6HR_DN (GSEA v. DMSO): -2.5861
NES KRIGE_RESPONSE_TO_TOSEDOSTAT_24HR_DN (GSEA v. DMSO): -2.743
NES LEE_BMP2_TARGETS_DN (GSEA v. DMSO): -2.881
NES PUJANA_CHEK2_PCC_NETWORK (GSEA v. DMSO): -2.452
NES WEI_MYCN_TARGETS_WITH_E_BOX (GSEA v. DMSO): -2.939
ES GOBP_NCRNA_METABOLIC_PROCESS (GSEA, v. DMSO): -0.717
ES GOBP_NCRNA_PROCESSING (GSEA, v. DMSO): -0.737
ES GOBP_RIBONUCLEOPROTEIN_COMPLEX_BIOGENESIS (GSEA, v. DMSO): -0.7048
ES GOBP_RIBOSOME_BIOGENESIS (GSEA, v. DMSO): -0.7793
ES GOBP_RRNA_METABOLIC_PROCESS (GSEA, v. DMSO): -0.7679
ES GOCC_MITOCHONDRIAL_ENVELOPE (GSEA, v. DMSO): -0.4986
ES GOCC_NUCLEOLUS (GSEA, v. DMSO): -0.546
ES GOCC_ORGANELLE_INNER_MEMBRANE (GSEA, v. DMSO): -0.5385
ES GOCC_PRERIBOSOME (GSEA, v. DMSO): -0.8527
ES GOCC_RIBONUCLEOPROTEIN_COMPLEX (GSEA, v. DMSO): -0.5996
ES GOMF_CATALYTIC_ACTIVITY_ACTING_ON_A_TRNA (GSEA, v. DMSO): -0.6843
ES GOMF_CATALYTIC_ACTIVITY_ACTING_ON_RNA (GSEA, v. DMSO): -0.6193
ES GOMF_RNA_HELICASE_ACTIVITY (GSEA, v. DMSO): -0.6953
ES GOMF_RRNA_BINDING (GSEA, v. DMSO): -0.7411
ES GOMF_STRUCTURAL_CONSTITUENT_OF_RIBOSOME (GSEA, v. DMSO): -0.6124
NES GOBP_NCRNA_METABOLIC_PROCESS (GSEA, v. DMSO): -2.6866
NES GOBP_NCRNA_PROCESSING (GSEA, v. DMSO): -2.741
NES GOBP_RIBONUCLEOPROTEIN_COMPLEX_BIOGENESIS (GSEA, v. DMSO): -2.64
NES GOBP_RIBOSOME_BIOGENESIS (GSEA, v. DMSO): -2.85
NES GOBP_RRNA_METABOLIC_PROCESS (GSEA, v. DMSO): -2.741
NES GOCC_MITOCHONDRIAL_ENVELOPE (GSEA, v. DMSO): -1.908
NES GOCC_NUCLEOLUS (GSEA, v. DMSO): -2.1002
NES GOCC_ORGANELLE_INNER_MEMBRANE (GSEA, v. DMSO): -2.039
NES GOCC_PRERIBOSOME (GSEA, v. DMSO): -2.662
NES GOCC_RIBONUCLEOPROTEIN_COMPLEX (GSEA, v. DMSO): -2.294
NES GOMF_CATALYTIC_ACTIVITY_ACTING_ON_A_TRNA (GSEA, v. DMSO): -2.236
NES GOMF_CATALYTIC_ACTIVITY_ACTING_ON_RNA (GSEA, v. DMSO): -2.299
NES GOMF_RNA_HELICASE_ACTIVITY (GSEA, v. DMSO): -2.194
NES GOMF_RRNA_BINDING (GSEA, v. DMSO): -2.258
NES GOMF_STRUCTURAL_CONSTITUENT_OF_RIBOSOME (GSEA, v. DMSO): -2.138
